Assay results reported in ChEMBL document CHEMBL1141107, “A novel series of non-carboxylic acid, non-hydantoin inhibitors of aldose reductase with potent oral activity in diabetic rat models: 6-(5-chloro-3-methylbenzofuran-2-sulfonyl)-2H-pyridazin-3-one and congeners” (J Med Chem, 2005).
pIC50: −log10 of the molar value.

How the values were obtained:
[1] = molecular target: Aldo-keto reductase family 1 member B1 (Homo sapiens, UniProt P15121); experiment: In vitro inhibitroy concentration against Aldose reductase incubated at 24 degree C for 15 minutes in pH 7.0
Rattus norvegicus [2] = experiment: Inhibition of fructose accumulation in diabetic rat after oral gavage administration, pH 4.5 by chronic test; type: functional
Rattus norvegicus [3] = organism: Rattus norvegicus; experiment: Inhibition of sorbitol accumulation in diabetic rat by chronic test; type: functional
Rattus norvegicus [4] = experiment: Inhibition of fructose accumulation in diabetic rat after oral gavage administration incubated at RT for 60 minutes in pH 4.5 by acute test dosed at 3 mg/kg; type: functional; conditions: 1 h
Rattus norvegicus [5] = experiment: Inhibition of fructose accumulation in diabetic rat after oral gavage administration incubated at RT for 60 minutes in pH 4.5 by acute test dosed at 10 mg/kg; type: functional; conditions: 1 h
Rattus norvegicus [6] = experiment: Inhibition of sorbitol accumulation in diabetic rat by acute test dosed at 10 mg/kg; type: functional
Rattus norvegicus [7] = experiment: Inhibition of sorbitol accumulation in diabetic rat by acute test dosed at 3 mg/kg; type: functional
Rattus norvegicus [8] = experiment: Inhibition of sorbitol accumulation in diabetic rat by acute test dosed at 20 mg/kg; type: functional
Rattus norvegicus [9] = experiment: Inhibition of fructose accumulation in diabetic rat after oral gavage administration incubated at RT for 60 minutes in pH 4.5 by acute test dosed at 20 mg/kg; type: functional; conditions: 1 h
Rattus norvegicus [10] = experiment: Dose required for fructose accumulation in diabetic rat after oral gavage administration incubated at RT for 60 minutes in pH 4.5 by acute test; type: functional
Rattus norvegicus [11] = organism: Rattus norvegicus; experiment: Dose required for inhibition of sorbitol accumulation in diabetic rat by acute test; type: functional
Rattus norvegicus [12] = experiment: Inhibition of fructose accumulation in diabetic rat after oral gavage administration, pH 4.5 by chronic test dosed at 20 mg/kg; type: functional
Rattus norvegicus [13] = experiment: Inhibition of sorbitol accumulation in diabetic rat by chronic test dosed at 20 mg/kg; type: functional
Rattus norvegicus [14] = experiment: Inhibition of sorbitol accumulation in diabetic rat by chronic test dosed at 10 mg/kg; type: functional
Rattus norvegicus [15] = experiment: Inhibition of fructose accumulation in diabetic rat after oral gavage administration, pH 4.5 by chronic test dosed at 10 mg/kg; type: functional
Rattus norvegicus [16] = experiment: Inhibition of sorbitol accumulation in diabetic rat by chronic test does at 20 mg/kg; type: functional
Rattus norvegicus [17] = experiment: Inhibition of sorbitol accumulation in diabetic rat by acute test dosed at 30 mg/kg; type: functional

## CC(C)c1c(S(=O)(=O)c2ccc(O)nn2)oc2ccc(Cl)cc12
[1]
  pIC50: 7.04
Rattus norvegicus [2]
  Inhibition: 14%
Rattus norvegicus [3]
  Inhibition: 48%

## Cc1c(S(=O)(=O)c2ccc(O)nn2)sc2ccc(Cl)cc12
[1]
  pIC50: 7.26
Rattus norvegicus [4]
  inhibition in vivo at 3 mg/kg: 29%
Rattus norvegicus [5]
  inhibition in vivo at 10 mg/kg: 51%
Rattus norvegicus [6]
  inhibition in vivo at 10 mg/kg: 83%
Rattus norvegicus [7]
  inhibition in vivo at 3 mg/kg: 49%

## O=c1ccc(S(=O)(=O)c2cc3cc(Cl)ccc3[nH]2)n[nH]1
[1]
  pIC50: 5.96

## Cc1c(S(=O)(=O)c2ccc(O)nn2)oc2cc(Cl)ccc12
[1]
  pIC50: 6.72
Rattus norvegicus [5]
  inhibition in vivo at 10 mg/kg: 28%
Rattus norvegicus [6]
  inhibition in vivo at 10 mg/kg: 40%

## O=c1ccc(S(=O)(=O)Cc2cccc(C(F)(F)F)c2F)n[nH]1
[1]
  pIC50: 7.36
Rattus norvegicus [8]
  inhibition in vivo at 20 mg/kg: 61%
Rattus norvegicus [9]
  inhibition in vivo at 20 mg/kg: 56%

## O=S(=O)(Cc1ccccc1C(F)(F)F)c1ccc(O)nn1
[1]
  pIC50: 6.30

## O=c1ccc(S(=O)(=O)c2ccc(C(F)(F)F)cc2)n[nH]1
[1]
  pIC50: 6.44
Rattus norvegicus [8]
  inhibition in vivo at 20 mg/kg: 67%
Rattus norvegicus [5]
  inhibition in vivo at 10 mg/kg: 10%
Rattus norvegicus [9]
  inhibition in vivo at 20 mg/kg: 24%
Rattus norvegicus [6]
  inhibition in vivo at 10 mg/kg: 44%

## O=S(=O)(Cc1ccccc1F)c1ccc(O)nn1
[1]
  pIC50: 6.37

## O=S(=O)(c1ccc(O)nn1)c1ccc(Br)cc1F
Rattus norvegicus [5]
  inhibition in vivo at 10 mg/kg: 67%
Rattus norvegicus [6]
  inhibition in vivo at 10 mg/kg: 81%

## O=c1ccc(S(=O)(=O)Cc2ccc(Br)cc2F)n[nH]1
[1]
  pIC50: 6.18

## O=c1ccc(S(=O)(=O)c2cc3cc(Cl)cc(Cl)c3o2)n[nH]1
[1]
  pIC50: 7.06
Rattus norvegicus [5]
  inhibition in vivo at 10 mg/kg: 39%
Rattus norvegicus [6]
  inhibition in vivo at 10 mg/kg: 32%

## O=S(=O)(Cc1cccc(F)c1F)c1ccc(O)nn1
[1]
  pIC50: 6.59
Rattus norvegicus [8]
  inhibition in vivo at 20 mg/kg: 82%
Rattus norvegicus [9]
  inhibition in vivo at 20 mg/kg: 51%

## O=c1ccc(S(=O)(=O)Cc2c(F)cccc2Cl)n[nH]1
[1]
  pIC50: 7.59
Rattus norvegicus [8]
  inhibition in vivo at 20 mg/kg: 42%
Rattus norvegicus [9]
  inhibition in vivo at 20 mg/kg: 45%

## O=c1ccc(S(=O)(=O)Cc2cccc(Cl)c2Cl)n[nH]1
[1]
  pIC50: 7.46
Rattus norvegicus [8]
  inhibition in vivo at 20 mg/kg: 65%
Rattus norvegicus [9]
  inhibition in vivo at 20 mg/kg: 48%

## O=S(=O)(c1ccc(O)nn1)c1ccc(Cl)cc1Cl
Rattus norvegicus [10]
  ED50: 3 mg/kg
Rattus norvegicus [11]
  ED50: 0.8 mg/kg

## Cc1c(S(=O)(=O)c2ccc(O)nn2)oc2ccccc12
[1]
  pIC50: 6.85
Rattus norvegicus [5]
  inhibition in vivo at 10 mg/kg: 43%
Rattus norvegicus [9]
  inhibition in vivo at 20 mg/kg: 56%

## O=c1ccc(S(=O)(=O)c2cc3ccc(F)cc3[nH]2)n[nH]1
[1]
  pIC50: 5.85

## O=c1ccc(S(=O)(=O)c2cc3ccc(Cl)cc3[nH]2)n[nH]1
[1]
  pIC50: 6.19

## O=c1ccc(S(=O)(=O)c2ccc(F)cc2F)n[nH]1
[1]
  pIC50: 6.06

## O=S(=O)(Cc1cccc(C(F)(F)F)c1)c1ccc(O)nn1
[1]
  pIC50: 7.14
Rattus norvegicus [8]
  inhibition in vivo at 20 mg/kg: 88%
Rattus norvegicus [12]
  inhibition in vivo at 20 mg/kg: 42%
Rattus norvegicus [13]
  inhibition in vivo at 20 mg/kg: 65%
Rattus norvegicus [9]
  inhibition in vivo at 20 mg/kg: 70%

## O=S(=O)(c1cccc(Cl)c1)c1ccc(O)nn1
[1]
  pIC50: 6.62

## O=c1ccc(S(=O)(=O)c2ccc(Cl)cc2)n[nH]1
[1]
  pIC50: 6.42
Rattus norvegicus [5]
  inhibition in vivo at 10 mg/kg: 52%
Rattus norvegicus [6]
  inhibition in vivo at 10 mg/kg: 65%

## O=c1ccc(S(=O)(=O)c2cc3ccccc3o2)n[nH]1
Rattus norvegicus [5]
  inhibition in vivo at 10 mg/kg: 34%

## CCc1c(S(=O)(=O)c2ccc(O)nn2)oc2ccc(Cl)cc12
Rattus norvegicus [14]
  inhibition in vivo at 10 mg/kg: 48%
[1]
  pIC50: 8.22
Rattus norvegicus [15]
  inhibition in vivo at 10 mg/kg: 24%

## O=c1ccc(S(=O)(=O)c2cc3ccccc3[nH]2)n[nH]1
[1]
  pIC50: 6.23
Rattus norvegicus [8]
  inhibition in vivo at 20 mg/kg: 100%
Rattus norvegicus [12]
  inhibition in vivo at 20 mg/kg: 50%
Rattus norvegicus [5]
  inhibition in vivo at 10 mg/kg: 58%
Rattus norvegicus [13]
  inhibition in vivo at 20 mg/kg: 67%
Rattus norvegicus [9]
  inhibition in vivo at 20 mg/kg: 82%
Rattus norvegicus [6]
  inhibition in vivo at 10 mg/kg: 75%

## O=c1ccc(S(=O)(=O)c2cc3cc(Cl)cc(Cl)c3[nH]2)n[nH]1
[1]
  pIC50: 6.70

## O=c1ccc(S(=O)(=O)c2c(Cl)cccc2Cl)n[nH]1
Rattus norvegicus [16]
  inhibition in vivo at 20 mg/kg: 75%
[1]
  pIC50: 7.30
Rattus norvegicus [17]
  inhibition in vivo at 30 mg/kg: 81%
